Values after ≈ are worked out from the molar mass of the structure shown. Read-outs that look alike come from different tables or passages of the source.
How the values were obtained:
[1] = test system: DNA methylation (CMV-EE210 cell line, silenced GFP transgene); test: cell-based green fluorescent protein (GFP) assay for demethylating activity; settings: concentration at which GFP expression level is reduced from g3 to g1/2; read-out: GFP50
Protocol: The demethylating activity of the compounds was tested in a cell-based green fluorescent protein (GFP) assay. In the assay, a decrease in methylation resulting from exposure to a methylation inhibitor leads to GFP expression, and is readily scored.
The CMV-EE210 cell line containing the epigenetically silenced GFP transgene was used to assay for reactivation of GFP expression by flow cytometry. CMV-EE210 was made by transfecting NIH 3T3 cells with the pTR-UF/UF1/UF2 plasmid, which contained pBS(+) (Stratagene, Inc.) with a cytomegalovirus (CMV) promoter driving a humanized GFP gene adapted for expression in mammalian cells. After transfection, high-level GFP expressing cells were initially selected by FACS analysis and sorting using a MoFlo cytometer (Cytomation, Inc.).
Decitabine, a potent inhibitor of mammalian DNMT1, was used as a positive control. […] Cells were then seeded to 30% confluence (˜5000 cell/well) in a 96-well plate containing the test compounds, and grown for three days in at 37 ° C. in 5% CO2.
The plates were examined under a fluorescent microscope using a 450-490 excitation filter (13 filter cube, Leica, Deerfield Ill.). Wells were scored gl positive, g2 positive, or g3 if GFP was expressed in 10%, 30%, >75% of viable cells, respectively.
Table 1 provides the results of the test for decitabine and the test compounds as DNA methylation inhibitors. GFP50 is the concentration of an inhibitor at which the Green Fluorescent Protein (GFP) expression level is reduced from g3 to g1/2.

[2] = stability in solvent formulations by HPLC; format: physicochemical
Protocol: The stability of a compound of the invention in various formulations under various storage conditions was investigated. Stability was determined by HPLC at the designated time intervals.

LINE-1 DNA methylation = LINE-1 DNA methylation in blood samples; format: in vivo, cynomolgus monkeys; settings: monkey blood samples; repeat dose 3 mg/kg; until day 22; p<0.05
Protocol: FIG. 3 illustrates the decrease in LINE1 methylation levels observed in blood samples drawn from cynomolgus monkeys on various days (D) after pretest.
In a repeat dose study, monkeys were dosed 3× weekly subcutaneously (3 mg/kg). […] (FIGS. 1 and 2.) Pharmacodynamic properties (not shown) were monitored and were acceptable. Blood samples were drawn periodically to assay LINE-1 DNA methylation.

[3] = test system: murine mammary carcinoma cells TS/A; test: anti-tumor effect in TS/A murine breast cancer model (Example 6); format: in vivo, Balb/c mice; settings: day 26 vs control mice; SGI-110 3 mg/kg SQ QDx5 days 1-5; anti-CTLA-4 mAb 100 μg at days 8, 11, 14 where combined
Protocol: TS/A is a murine mammary carcinoma originated from a moderately differentiated, weakly immunogenic mammary adenocarcinoma spontaneously arising in a 20-mo-old female BALB/c mouse.
The anti-mouse CTLA-4 was the CTLA-4 mAb 9H10, obtained from BioXCell (West Lebanon, N.H., USA), dosed at 100 μg/mouse in 200 μl (ip).
Balb/c mice (6/group) were injected SQ in the flank region with murine mammary carcinoma cells TS/A (2×10^5).
Control mice were injected with diluent for reconstitution. The effectiveness and tolerability of treatments was evaluated by tumor volume and body weight measurements, respectively.

[4] = single dose pharmacokinetics in monkeys; settings: single dose 10 mg/kg
solubility = format: physicochemical
Description: The good chemical stability taken together with the excellent solubility identified the glycol/glycerin/ethanol (65:25:10) system as a formulation for use in animal experiments.

Work on `Nc1ncn([C@H]2CC(O)[C@@H](COP(=O)(O)OC3C[C@H](n4cnc5c(=O)[nH]c(N)nc54)O[C@@H]3CO)O2)c(=O)n1` (stereo partly shown) yielded an EC50 [1] of 0.7 µM.

For `Nc1ncn([C@H]2C[C@H](OP(=O)(O)OC[C@H]3O[C@@H](n4cnc5c(=O)[nH]c(N)nc54)C[C@@H]3O)[C@@H](CO)O2)c(=O)n1` [SGI-110], the “% decomposition per hour” value ([2]; DMSO/water (1:1, w/w), 25° C./60% relative humidity) was 0.72, the Percent compound detected ([2]; DMSO/water (1:1, w/w), 25° C./60% relative humidity, 5 hours) was 90.1% and the Percent compound detected ([2]; DMSO/water (1:1, w/w), 25° C./60% relative humidity, time point 0) was 93.7%. The “% decomposition per hour” value ([2]; DMSO/water (3:1, w/w), 25° C./60% relative humidity) was 0.10, the Percent compound detected ([2]; DMSO/water (3:1, w/w), 25° C./60% relative humidity, 24 hours) was 94.2% and the Percent compound detected ([2]; DMSO/water (3:1, w/w), 25° C./60% relative humidity, time point 0) was 96.6%. For the same molecule, the “% decomposition per hour” value ([2]; Propylene Glycol/Glycerin/Ethanol (65:25:10, w/w/w), 2-8° C.) was 0.00032, the Percent compound detected ([2]; Propylene Glycol/Glycerin/Ethanol (65:25:10, w/w/w), 2-8° C., 3 months) was 95.1% and the Percent compound detected ([2]; Propylene Glycol/Glycerin/Ethanol (65:25:10, w/w/w), 2-8° C., time point 0) was 95.8%. The “% decomposition per hour” value ([2]; Propylene Glycol/Glycerin/Ethanol (65:25:10, w/w/w), 25° C./60% relative humidity) was 0.013, the Percent compound detected ([2]; Propylene Glycol/Glycerin/Ethanol (65:25:10, w/w/w), 25° C./60% relative humidity, 3 months) was 67.6% and the Percent compound detected ([2]; Propylene Glycol/Glycerin/Ethanol (65:25:10, w/w/w), 25° C./60% relative humidity, time point 0) was 95.8%. The “% decomposition per hour” value ([2]; Propylene glycol/Glycerin (70:30, v/v), room temperature) was 0.021, the Percent compound detected ([2]; Propylene glycol/Glycerin (70:30, v/v), room temperature, 24 hours) was 96.3% and the Percent compound detected ([2]; Propylene glycol/Glycerin (70:30, v/v), room temperature, time point 0) was 96.8%. The “stability in anhydrous DMSO” value ([2]; anhydrous DMSO) was “stable”, the improvement in stability ([2]; combined effects of cooling plus addition of ethanol to the propylene glycol/glycerin system) was 66 fold and the improvement in stability ([2]; propylene glycol/glycerin/ethanol (65:25:10), changing from warmer to colder storage conditions) was 40 fold. The “% decomposition per hour” value ([2]; water, pH 7.0, 2-8° C.) was 0.14, the Percent compound detected ([2]; water, pH 7.0, 2-8° C., 5 hours) was 95.1% and the Percent compound detected ([2]; water, pH 7.0, 2-8° C., time point 0) was 95.8%. For the same molecule, the “% decomposition per hour” value ([2]; water, pH 7.0, room temperature) was 1.1, the Percent compound detected ([2]; water, pH 7.0, room temperature, 5 hours) was 90.4% and the Percent compound detected ([2]; water, pH 7.0, room temperature, time point 0) was 95.8%. For the same molecule, the “LINE-1 DNA methylation vs level prior to initial dosing” value (LINE-1 DNA methylation) was “Decreases”, the tumor growth inhibition [3] was 62.9% and the AUC [4] was 1,469 ng·hr/mL. For the same molecule, the solubility (solubility; propylene glycol/glycerin/ethanol (65:25:10), organic solvent or mixture, read-out: maximum solubility) was 130 to 150 mg/mL (≈ 233 to 269 mM) and the solubility (solubility; water, aqueous, read-out: aqueous solubility) was 20 mg/mL (≈ 35.9 mM).

For `Nc1ncn([C@H]2CC(OP(=O)(O)OC[C@H]3O[C@@H](n4cnc5c(=O)[nH]c(N)nc54)CC3O)[C@@H](CO)O2)c(=O)n1` (stereo partly shown), the EC50 [1] was 0.4 µM.

Work on `Nc1ncn([C@H]2C[C@H](O)[C@@H](CO)O2)c(=O)n1` [Decitabine, 5-aza-2′-deoxycytidine] yielded an EC50 [1] of 0.5 µM, an AUC [4] of 340 ng·h/mL and a Cmax [4] of 160 ng/mL.

Reference: patent US20200009247A1, “DRUG COMBINATIONS” (ASTEX PHARMACEUTICALS, INC., priority 2013, published 2020)
